The assay concerns the target PASK (Homo sapiens (Human), UniProt Q96RG2). The assay can be described thus: PAS Kinase FRET Assay. In kind it is biochemical. Conditions: TR-FRET, Ulight-peptide substrate; read-out: IC50 Kinase Domain. From the text:
PAS Kinase FRET Assay The aim of the FRET assay is to determine the inhibition potential of test compounds on targeted kinase. This assay platform provides a homogenous screening method for measuring kinase activity by quantitating the amount of phospho-substrate in solution following a kinase reaction. In the presence of kinase and ATP, the Ulight-peptide is phosphorylated and captured by an anti-phospho-substrate antibody, which brings the Eu chelate donor and Ulight acceptor dyes into close proximity. […] The contents of the plate were and incubated at RT for 1 h. The reaction was stopped by adding 5 μl of stop solution to each test well followed by mixing and incubation at RT for 10 minutes. 5 μl of detection mix (detection antibody diluted in detection buffer) was added; the contents of the plate were mixed and then incubated in the dark for 1 hour at RT. […] The results were graphed to calculate the EC50. Titration of ATP at the EC50 concentration of kinase to determine ATP Km,app. was performed using the following method. […] The contents of the plate were and incubated at RT for 1 h. The reaction was stopped by adding 5 μl of stop solution to each test well followed by mixing and incubation at RT for 10 minutes. 5 μl of detection mix (detection antibody diluted in detection buffer) was added; the contents of the plate were mixed and then incubated in the dark for 1 hour at RT. […] The results were graphed to calculate the EC50 as the ATP Km,app. […] If compound is not soluble under this condition, it was diluted to 3 mM. Kinase reaction buffer was prepared containing 10 mM MgCl2, 50 mM HEPES, 1 mM EGTA, 0.01% TWEEN-20, 2 mM DTT. […] As a positive control, 2.5 μl of positive compound was added to assay wells, and 2.5 μl of DMSO to assay wells as vehicle control. Kinase solution was prepared in reaction buffer at 2× final assay concentration. Kinase solution (5 μl) was added to each well of the assay plate. The substrate and ATP solution was prepared in kinase reaction buffer at 4× final assay concentration. The kinase reaction was started by adding 2.5 μl of substrate+ATP mix solution to each well of the assay plate. The plate is mixed on a plate shaker; then covered and allowed to react for 2 hours in the dark at 25° C. without shaking. The reaction was stopped by adding 5 μl of stop solution to each test well followed by mixing and incubation at RT for 10 minutes in the dark. 5 μl of detection mix (detection antibody diluted in detection buffer) was added; the contents of the plate were mixed and then incubated in the dark for 1 hour at RT.
For orientation: Time-resolved FRET reads energy transfer from a long-lived donor to a nearby acceptor.

A word on the IC50: it is the concentration at which inhibition is half-maximal.

Chain of PASK (Q96RG2 999-1251): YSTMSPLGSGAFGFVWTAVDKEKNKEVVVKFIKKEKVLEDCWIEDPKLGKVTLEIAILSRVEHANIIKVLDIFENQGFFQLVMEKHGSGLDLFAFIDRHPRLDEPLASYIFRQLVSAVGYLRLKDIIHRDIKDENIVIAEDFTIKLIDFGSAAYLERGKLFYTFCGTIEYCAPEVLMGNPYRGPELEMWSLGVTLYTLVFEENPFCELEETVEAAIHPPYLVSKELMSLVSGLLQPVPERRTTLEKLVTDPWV

For `CC(C)N(C)c1nc2cc(C(=O)O)ccc2nc1-c1ccc(C#N)cc1` [Example 86, 2-(4-Cyanophenyl)-3-(isopropyl(methyl)amino)quinoxaline-6-carboxylic acid], the half-maximal inhibitory concentration (IC50) was at most 10 µM.
As to `CC(C)N(C)c1nc2cc(C(=O)O)ccc2nc1-c1ccco1` [Example 98, 2-(Furan-2-yl)-3-(isopropyl(methyl)amino)quinoxaline-6-carboxylic acid], the IC50 was at most 10 µM.
On to `CCN(CC)c1nc2cc(C(=O)O)ccc2nc1-c1ccccc1` [Example 36, 3-(Diethylamino)-2-phenylquinoxaline-6-carboxylic acid], for which the IC50 was at most 10 µM.
`CC(C)N(C)c1nc2cc(C(=O)O)ccc2nc1-c1ccc(S(C)(=O)=O)cc1` [Example 82, 3-(Isopropyl(methyl)amino)-2-(4-(methylsulfonyl)phenyl)quinoxaline-6-carboxylic acid]: the half-maximal inhibitory concentration (IC50) was at least 10 µM.
As for `COc1cccc(-c2nc3ccc(C(=O)O)cc3nc2N(C)C(C)C)c1` [Example 69, 3-(Isopropyl(methyl)amino)-2-(3-methoxyphenyl)quinoxaline-6-carboxylic acid], the IC50 was at most 10 µM.
Take `CN(c1nc2cc(C(=O)O)ccc2nc1-c1ccc(F)cc1)C1CCCC1` [Example 106, 3-(Cyclopentyl(methyl)amino)-2-(4-fluorophenyl)quinoxaline-6-carboxylic acid]: the IC50 is at most 10 µM.
In the case of `CC(=O)N(C)C1CCN(c2nc3cc(C(=O)O)ccc3nc2-c2ccccc2)CC1` [Example 34, 3-(4-(N-Methylacetamido)piperidin-1-yl)-2-phenylquinoxaline-6-carboxylic acid] it was at most 10 µM; in that of `CC(C)N(C)c1nc2cc(C(=O)O)ccc2nc1-c1cccs1` [Example 108, 3-(Isopropyl(methyl)amino)-2-(thiophen-2-yl)quinoxaline-6-carboxylic acid], at most 10 µM.
The value for `CC(C)N(C)c1nc2cc(C(=O)O)ccc2nc1-c1ccc(N2CCOCC2)cc1` [Example 100, 3-(Isopropyl(methyl)amino)-2-(4-morpholinophenyl)quinoxaline-6-carboxylic acid] was at most 10 µM; that for `CN(c1ccccc1)C1CCN(c2nc3cc(C(=O)O)ccc3nc2-c2ccccc2)CC1` [Example 35, 3-(4-(Methyl(phenyl)amino)piperidin-1-yl)-2-phenylquinoxaline-6-carboxylic acid] was at most 10 µM; that for `CCC(C)N(C)c1nc2cc(C(=O)O)ccc2nc1-c1ccccc1` (stereo not drawn) [Example 48, 3-(sec-Butyl(methyl)amino)-2-phenylquinoxaline-6-carboxylic acid] was at most 10 µM.
Take `CN(c1nc2cc(C(=O)O)ccc2nc1-c1ccc(F)cc1)C1CCOCC1` [Example 105, 2-(4-Fluorophenyl)-3-(methyl(tetrahydro-2H-pyran-4-yl)amino)quinoxaline-6-carboxylic acid]: the IC50 is at most 10 µM.
For `CN1CCN(c2nc3cc(C(=O)O)ccc3nc2-c2ccc(F)cc2)CC1=O` [Example 112, 2-(4-Fluorophenyl)-3-(4-methyl-3-oxopiperazin-1-yl)quinoxaline-6-carboxylic acid], the IC50 is at most 10 µM.
In the case of `C[C@H]1CN(c2ccccn2)CCN1c1nc2cc(C(=O)O)ccc2nc1-c1ccccc1` [Example 94, (S)-3-(2-Methyl-4-(pyridin-2-yl)piperazin-1-yl)-2-phenylquinoxaline-6-carboxylic acid] it was at most 10 µM.
The value for `CC(C)N(C)c1nc2cc(C(=O)O)ccc2nc1-c1ccccc1F` [Example 71, 2-(2-Fluorophenyl)-3-(isopropyl(methyl)amino)quinoxaline-6-carboxylic acid] was at most 10 µM; that for `O=C(O)c1ccc2nc(-c3ccccc3)c(N3CC[C@@H](O)C3)nc2c1` [Example 49, (R)-3-(3-Hydroxypyrrolidin-1-yl)-2-phenylquinoxaline-6-carboxylic acid] was at most 10 µM; that for `O=C(O)c1ccc2nc(-c3ccccc3)c(N3CCC[C@H]3CO)nc2c1` [Example 53, (S)-3-(2-(Hydroxymethyl)pyrrolidin-1-yl)-2-phenylquinoxaline-6-carboxylic acid] was at most 10 µM.
In the case of `O=C(O)c1ccc2nc(-c3ccccc3)c(NCCc3ccccc3)nc2c1` [Example 41, 3-(Phenethylamino)-2-phenylquinoxaline-6-carboxylic acid] it was at most 10 µM.
As to `O=C(O)c1ccc2nc(-c3ccc(F)cc3)c(N3CCS(=O)(=O)CC3)nc2c1` [Example 101, 3-(1,1-Dioxidothiomorpholino)-2-(4-fluorophenyl)quinoxaline-6-carboxylic acid], the IC50 was at least 10 µM.
In the case of `CC(=O)NC1CCN(c2nc3cc(C(=O)O)ccc3nc2-c2ccccc2)CC1` [Example 37, 3-(4-Acetamidopiperidin-1-yl)-2-phenylquinoxaline-6-carboxylic acid] it was at most 10 µM.
In the case of `C[C@H](c1ccccc1)N(C)c1nc2cc(C(=O)O)ccc2nc1-c1ccccc1` [Example 59, (R)-3-(Methyl(1-phenylethyl)amino)-2-phenylquinoxaline-6-carboxylic acid] it was at most 10 µM; in that of `CN(c1nc2cc(C(=O)O)ccc2nc1-c1ccc(F)cc1)C1CC1` [Example 92, 3-(Cyclopropyl(methyl)amino)-2-(4-fluorophenyl)quinoxaline-6-carboxylic acid], at most 10 µM; in that of `CN(CCc1ccccc1)c1nc2cc(C(=O)O)ccc2nc1-c1ccccc1` [Example 42, 3-(Methyl(phenethyl)amino)-2-phenylquinoxaline-6-carboxylic acid], at most 10 µM.
In the case of `O=C(O)c1ccc2nc(-c3ccccc3)c(-n3ccc4ccccc43)nc2c1` [Example 62, 3-(1H-Indol-1-yl)-2-phenylquinoxaline-6-carboxylic acid] it was at most 10 µM; in that of `CC(C)N(C)c1nc2cc(C(=O)O)ccc2nc1-c1cccnc1` [Example 97, 3-(Isopropyl(methyl)amino)-2-(pyridin-3-yl)quinoxaline-6-carboxylic acid], at most 10 µM; in that of `O=C(O)c1ccc2nc(-c3ccccc3)c(N3CCc4ccccc4C3)nc2c1` [Example 39, 3-(3,4-Dihydroisoquinolin-2(1H)-yl)-2-phenylquinoxaline-6-carboxylic acid], at most 10 µM.
As to `CS(=O)(=O)N1CCN(c2nc3cc(C(=O)O)ccc3nc2-c2ccccc2)CC1` [Example 33, 3-(4-(Methylsulfonyl)piperazin-1-yl)-2-phenylquinoxaline-6-carboxylic acid], the IC50 is at most 10 µM.
Regarding `O=C(O)c1ccc2nc(-c3ccccc3)c(N3CCS(=O)(=O)CC3)nc2c1` [Example 102, 3-(1,1-Dioxidothiomorpholino)-2-phenylquinoxaline-6-carboxylic acid], the IC50 was at least 10 µM.
In the case of `O=C(O)c1ccc2nc(-c3ccccc3)c(N3CC[C@H](O)C3)nc2c1` [Example 50, (S)-3-(3-Hydroxypyrrolidin-1-yl)-2-phenylquinoxaline-6-carboxylic acid], the IC50 was at most 10 µM.
With `C[C@H]1CN(c2ccccn2)CCN1c1nc2cc(C(=O)O)ccc2nc1-c1ccc(F)cc1` [Example 90, (S)-2-(4-Fluorophenyl)-3-(2-methyl-4-(pyridin-2-yl)piperazin-1-yl)quinoxaline-6-carboxylic acid], the IC50 is at most 10 µM.
